{"source": "patent US20030096704A1", "about": "“Novel use of herbicides” (priority 2000, published 2003)", "key": {"[1]": {"system": "Rice “Lemont” (conventional rice variety)", "assay": "Post-emergence herbicidal action on rice (paddy system): phytotoxicity on conventional rice", "format": "in vivo, Oryza sativa", "conditions": "8 g/ha, evaluated after about 21 days, 0% no action, 100% plant completely died", "procedure": "(§1) Post-emergence Herbicidal Action on Rice:\n(§2) Weeds are sown and raised in soil saturated with water in plastics troughs. The rice plants are sown and grown separately from the weeds and after 10 days transplanted into the plastics troughs containing the weeds. The test compounds are then applied to the plants in the form of an aqueous suspension. One day after application, the water level is raised by 3 cm (paddy system).\n(§3) The test plants are then grown on in a greenhouse under optimum conditions. […] For comparison with the prior art, the compound sulfometuron-methyl (known from The Pesticide Manual, 10th ed., the British Crop Protection Council, page 931) is tested. Sulfometuron-methyl belongs to the same class of ALS-inhibitors as the compound of formula I. The compound of formula I and sulfometuron-methyl are tested at a rate of application of 8 g/ha.\nThe variety “Lemont” is used as conventional rice variety."}, "[2]": {"system": "Rice ATCC 97523 (ALS-inhibitor-resistant rice variety SPCW-1)", "assay": "Post-emergence herbicidal action on rice (paddy system): phytotoxicity on ALS-inhibitor-resistant rice", "format": "in vivo, Oryza sativa", "conditions": "8 g/ha, evaluated after about 21 days, 0% no action, 100% plant completely died", "procedure": "as §1, §2, §3\nThe ALS-inhibitor-resistant rice variety used is Oryza sativa, Linnaeus name: SPCW-1, deposited under the number ATCC 97523, depositor: Louisiana State Univ."}, "[3]": {"system": "Cyperus serotinus (CYPSE)", "assay": "Post-emergence herbicidal action on rice (paddy system): weed control", "format": "in vivo", "conditions": "8 g/ha; leaf stage 3, height 11 cm at application; about 21 days", "procedure": "as §1, §2, §3"}, "[4]": {"system": "Echinochloa crus galli (ECHCG)", "assay": "Post-emergence herbicidal action on rice (paddy system): weed control", "format": "in vivo", "conditions": "8 g/ha, about 21 days", "procedure": "as §1, §2, §3"}, "[5]": {"system": "Monochoria vaginalis (MOOVA)", "assay": "Post-emergence herbicidal action on rice (paddy system): weed control", "format": "in vivo", "conditions": "8 g/ha; leaf stage 2, height 1 cm at application; about 21 days", "procedure": "as §1, §2, §3"}}}
{"smiles": "COC(=O)c1ccccc1S(=O)(=O)NC(=O)Nc1nc(C)cc(C)n1", "note": "[sulfometuron-methyl]", "values": [{"measurement": "% Phytotoxicity Rice “Lemont”", "setting": "[1]", "value": 100, "unit": "%"}, {"measurement": "% Phytotoxicity Rice ATCC 97523", "setting": "[2]", "value": 95, "unit": "%"}, {"measurement": "% Weed control CYPSE", "setting": "[3]", "value": 95, "unit": "%"}, {"measurement": "% Weed control ECHCG 1", "setting": "[4]; Echinochloa crus galli post 1.0 leaf (leaf stage 1.5, height 6 cm at application)", "value": 100, "unit": "%"}, {"measurement": "% Weed control ECHCG 3", "setting": "[4]; Echinochloa crus galli post 3.0 leaf (leaf stage 3, height 25 cm at application)", "value": 98, "unit": "%"}, {"measurement": "% Weed control MOOVA", "setting": "[5]", "value": 100, "unit": "%"}]}
